The target in this experiment is T1, Human TRPV3 (Homo sapiens, UniProt Q8NET8).
T1 construct: expressed in transfected cells; host or cells: CHO cells (G-418 selection)
T1 sequence (Q8NET8 1-790): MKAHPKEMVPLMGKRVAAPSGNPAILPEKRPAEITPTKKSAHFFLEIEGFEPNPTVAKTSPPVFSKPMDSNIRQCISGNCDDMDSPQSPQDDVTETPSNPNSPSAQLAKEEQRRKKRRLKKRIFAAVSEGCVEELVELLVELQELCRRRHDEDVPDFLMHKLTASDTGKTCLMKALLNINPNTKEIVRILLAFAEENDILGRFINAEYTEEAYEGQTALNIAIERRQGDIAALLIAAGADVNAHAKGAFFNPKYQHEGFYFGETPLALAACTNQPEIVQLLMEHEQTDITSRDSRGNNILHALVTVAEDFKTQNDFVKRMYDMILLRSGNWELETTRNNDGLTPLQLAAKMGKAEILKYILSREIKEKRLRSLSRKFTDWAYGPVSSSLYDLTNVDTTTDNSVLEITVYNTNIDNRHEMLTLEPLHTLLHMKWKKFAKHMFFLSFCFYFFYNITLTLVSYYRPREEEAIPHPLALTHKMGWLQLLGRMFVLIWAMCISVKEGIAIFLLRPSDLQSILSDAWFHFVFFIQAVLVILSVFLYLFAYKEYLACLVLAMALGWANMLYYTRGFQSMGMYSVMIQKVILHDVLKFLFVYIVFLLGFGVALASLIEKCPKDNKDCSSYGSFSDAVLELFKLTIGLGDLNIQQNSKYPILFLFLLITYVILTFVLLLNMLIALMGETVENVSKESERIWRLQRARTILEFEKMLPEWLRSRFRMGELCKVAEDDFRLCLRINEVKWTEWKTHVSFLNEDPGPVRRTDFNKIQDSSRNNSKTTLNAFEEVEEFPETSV
As to the kind of experiment: Screening for TRPV3 antagonist using the 45Calcium uptake assay (inhibition of 2-APB induced cellular uptake of radioactive calcium). The settings on record: for inhibition at 1 µM: read-out: Percentage inhibition at 1.0 μM; for inhibition at 10 µM: read-out: Percentage inhibition at 10.0 μM; for IC50: class symbols. The class given is cell-based. In a few lines: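 CHO cells stably expressing human TRPV3, preincubated 10 min with test compound, then 2-APB (500 μM final) plus 5 μCi/ml 45Ca2+ for 4 min in DMEM/F-12 with 1.8 mM CaCl2; 0.5% DMSO final. Lysate radioactivity by scintillation counting. IC50 by nonlinear regression of % maximal response; % inhibition at 1.0 and 10.0 μM.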

Where [1] appears, read: 1.0 μM test compound, human TRPV3 expressing CHO cells, 2-APB 500 μM.
[2] abbreviates: 10.0 μM test compound, human TRPV3 expressing CHO cells, 2-APB 500 μM.
[3] abbreviates: human TRPV3 expressing CHO cells, 2-APB 500 μM.

Where two headings read alike, the source gives them in different places.

`COc1cccc(/C=C/c2nc3sccn3c(=O)c2-c2ccc(OCC3CC3)cc2)c1OCC1CC1` [Example 47, 7-[(E)-2-(2-Cyclopropylmethoxy-3-methoxyphenyl)-1-ethenyl]-6-(4-cyclopropylmethoxyphenyl]-5H-[1,3]thiazolo[3,2-a]pyrimidin-5-one]: the inhibition (as a rule, the relative decrease from the control value, in per cent) at 1 µM under setting [1] was found to be 43.7%. Also, the inhibition at 10 µM under setting [2] worked out at 69.2%.

Consider `COCCOc1c(/C=C/c2nc3sccn3c(=O)c2-c2ccc(C#N)cc2)cccc1OC` [Example 14, 4-{7-[(E)-2-(3-Methoxy-2-(2-methoxyethoxy)phenyl]-1-ethenyl}-5-oxo-5H-[1,3]-thiazolo[3,2-a]pyrimidin-6-yl}benzonitrile], for which the inhibition at 1 µM under setting [1] was 41%. Moreover, the inhibition at 10 µM under setting [2] came to 88.1%.

Take `COCCOc1c(/C=C/c2nc3sc4ccccc4n3c(=O)c2-c2ccc(OC(F)(F)F)cc2)cccc1OC` [Example 96, 2-{(E)-2-[3-Methoxy-2-(2-methoxyethoxy)phenyl]-1-ethenyl}-3-(4-trifluoromethoxy-phenyl)-4H-benzo[4,5][1,3]thiazolo-[3,2-a]pyrimidin-4-one]: the inhibition at 1 µM under setting [1] was 24.8%. Under setting [2], the inhibition at 10 µM worked out at 67.7%.

For `COc1cccc(/C=C/c2nc3sccn3c(=O)c2-c2ccc(C#N)cc2)c1OCCC(C)C` [Example 11, 4-{7-[(E)-2-(2-Isopentyloxy-3-methoxyphenyl)-1-ethenyl]-5-oxo-5H-[1,3]thiazolo[3,2-a]pyrimidin-6-yl}benzonitrile], the inhibition at 1 µM under setting [1] was found to be 76.2%. Further, the inhibition at 10 µM under setting [2] is 90%. Besides, the IC50 – broadly, the concentration at which inhibition is half-maximal – under setting [3] is less than 250 nM.

As for `COc1cccc(/C=C/c2nc3sc4ccccc4n3c(=O)c2-c2ccc(C#N)cc2)c1OCC1CC1` [Example 86], the “Percentage inhibition at 1.0 μM” value under setting [1] amounted to 45.5%. In addition, the “Percentage inhibition at 10.0 μM” value under setting [2] was 75.6%.

For the compound `COc1cccc(/C=C/c2nc3sccn3c(=O)c2-c2ccc(OC(F)(F)F)cc2)c1OCCC(C)C` [Example 50, 7-[(E)-2-{2-Isopentyloxy-3-methoxyphenyl}-1-ethenyl]-6-[4-(trifluoromethoxy)phenyl]-5H-[1,3]thiazolo[3,2-a]pyrimidin-5-one], the inhibition at 1 µM under setting [1] stood at 81.9%. For the same compound, the inhibition at 10 µM under setting [2] was 89.8%. Besides, the IC50 under setting [3] is less than 250 nM.

With `CCCCOc1c(/C=C/c2nc3sccn3c(=O)c2-c2ccc(C(F)(F)F)cc2)cccc1OC` [Example 26, 7-[(E)-2-(2-Butoxy-3-methoxyphenyl)-1-ethenyl]-6-[4-(trifluoromethyl)phenyl]-5H-[1,3]thiazolo[3,2-a]pyrimidin-5-one], the inhibition at 1 µM under setting [1] is 56.6%. Moreover, the inhibition at 10 µM under setting [2] was determined as 84.5%.

Regarding `O=c1c(-c2ccc(OC(F)(F)F)cc2)c(/C=C/c2cccc(OC(F)F)c2OCC2CC2)nc2sccn12` [Example 63, 7-{(E)-2-[2-(Cyclopropylmethoxy)-3-difluoromethoxyphenyl]-1-ethenyl}-6-(4-trifluoromethoxyphenyl)-5H-[1,3]thiazolo[3,2-a]pyrimidin-5-one], the inhibition at 1 µM under setting [1] came to 81.4%. For the same compound, the inhibition at 10 µM under setting [2] was determined as 91.8%. Further, the IC50 under setting [3] is less than 250 nM.

`COc1cc(/C=C/c2nc3sccn3c(=O)c2-c2ccc(C(F)(F)F)cc2)ccc1OCC1CC1` [Example 38, 7-[(E)-2-(4-Cyclopropylmethoxy-3-methoxyphenyl)-1-ethenyl]-6-[4-(trifluoromethyl)-phenyl]-5H-[1,3]thiazolo[3,2-a]pyrimidin-5-one]: the inhibition at 1 µM under setting [1] came out at 28.6%. In addition, the inhibition at 10 µM under setting [2] was 50.2%.

With `COc1cccc(/C=C/c2nc3sc(Cl)cn3c(=O)c2-c2ccc(OC(F)(F)F)cc2)c1OCC(C)(C)C` [Example 78, 2-Chloro-7-[(E)-2-(2-(2,2-dimethylpropoxy)-3-methoxyphenyl)vinyl]-6-[4-(trifluoromethoxy)phenyl]-5H-[1,3]thiazolo[3,2-a]pyrimidin-5-one], the inhibition at 1 µM under setting [1] is 27.1%. In addition, the inhibition at 10 µM under setting [2] came to 47.5%.

Regarding `COc1cccc(/C=C/c2nc3sc(Cl)cn3c(=O)c2-c2ccc(N(C)C)cc2)c1OCC(C)(C)C` [Example 79, 2-Chloro-6-[4-(dimethylamino)phenyl]-7-[(E)-2-(2-(2,2-dimethylpropoxy)-3-methoxy-phenyl)vinyl]-5H-[1,3]thiazolo[3,2-a]pyrimidin-5-one], the inhibition at 1 µM under setting [1] was found to be 57.9%.

Turning to `COc1cccc(/C=C/c2nc3sccn3c(=O)c2-c2ccccc2)c1OCC1CC1` [Example 2, 7-{(E)-2-[2-(Cyclopropylmethoxy)-3-methoxyphenyl]vinyl}-6-phenyl-5H-[1,3]thiazolo[3,2-a]pyrimidin-5-one], the inhibition at 1 µM under setting [1] worked out at 10.4%. For the same compound, the inhibition at 10 µM under setting [2] was determined as 73.1%. Under setting [3], the IC50 is 1000 to 10000 nM.

In the case of `COc1cccc(/C=C/c2nc3sccn3c(=O)c2-c2ccc(C#N)cc2)c1OCc1cccc(F)c1` [Example 20], the “Percentage inhibition at 1.0 μM” value under setting [1] amounted to 56.5%. Further, the “Percentage inhibition at 10.0 μM” value under setting [2] was determined as 79.3%.

As to `COc1cccc(/C=C/c2nc3sccn3c(=O)c2-c2ccc(OCC(F)(F)F)cc2)c1OCC1CC1` [Example 45, 7-[(E)-2-(2-Cyclopropylmethoxy-3-methoxyphenyl)-1-ethenyl]-6-(4-(2,2,2-trifluoroethoxy)phenyl]-5H-[1,3]thiazolo[3,2-a]pyrimidin-5-one], under setting [1], the inhibition at 1 µM is 30.7%. Besides, the inhibition at 10 µM under setting [2] came out at 77.5%.

`COc1cccc(/C=C/c2nc3sc4ccccc4n3c(=O)c2-c2ccc(C#N)cc2)c1OCCCC#N` [Example 83, 4-(2-{(E)-2-[2-(3-Cyanopropoxy)-3-methoxyphenyl}-1-ethenyl}-4-oxo-4H-benzo[4,5]-[1,3]thiazolo-[3,2]pyrimidin-3-yl)benzonitrile]: the “Percentage inhibition at 1.0 μM” value under setting [1] was 23.6%. Moreover, the “Percentage inhibition at 10.0 μM” value under setting [2] was 57.1%.

As for `COc1cccc(/C=C/c2nc3sccn3c(=O)c2-c2ccc(C#N)cc2)c1OCC1CC1` [Example 16, 4-{7-[(E)-2-[2-(Cyclopropylmethoxy)-3-methoxyphenyl]-1-ethenyl}-5-oxo-5H-[1,3]thiazolo[3,2-a]pyrimidin-6-yl}benzonitrile], the inhibition at 1 µM under setting [1] was 59.3%. Further, under setting [2], the inhibition at 10 µM was 91.7%. The 50% inhibitory concentration (IC50) under setting [3] lay in the range of 500 to 1000 nM.

For the compound `CCOCCOc1c(/C=C/c2nc3sccn3c(=O)c2-c2ccc(C(F)(F)F)cc2)cccc1OC` [Example 32, {7-[(E)-2-(2-Ethoxyethoxy)-3-methoxy)phenyl-1-ethenyl]-6-[4-(trifluoromethyl)phenyl]-5H-[1,3]thiazolo[3,2-a]pyrimidin-5-one], under setting [1], the “Percentage inhibition at 1.0 μM” value was found to be 89.3%. Also, under setting [2], the “Percentage inhibition at 10.0 μM” value was 97.7%. Also, under setting [3], the IC50 is 250 to 500 nM.

With `COc1cccc(/C=C/c2nc3sccn3c(=O)c2-c2ccc(OCCCC#N)cc2)c1OCC1CC1` [Example 46], where the note is “CHO”, the inhibition at 1 µM was determined as 10% and the inhibition at 10 µM came to 52.8%.

(Values after patent US8119647B2, “Fused pyrimidineone compounds as TRPV3 modulators” (Glenmark Pharmaceuticals S.A., priority 2008, dated 2012).)
